Experiments:
MSC = experiment: Reprogramming of MSCs toward neural progenitor spheres (neurosphere production); type: cell-based
Description: MSC media contains DMEM F:12, 10% KSR, 5% Glutamax, 5% NNEA, 1% Penicillin/streptomycin. We used 12 well treated plates for production.
MSCs are seeded in culture media and allowed to grow up under serum-free conditions until 80% confluence on adherent conditions using laminin as coat.
At stage 1, fresh media and NSC exosomes (and in two methodologies also we used pluripotent cells to enhance de-differentiation) as a source of linage specific signals, are provided to the cultured MSCs (typically following decitabine treatment), and exposed to NSC exosomes for 1-5 days. Following stage 1, (typically at day 5) stage 2 involves switching out media and NSC exosomes and exposing the cells to the fresh media and NSC exosomes for 5-15 days. After stage 2, (typically at day 15 from the start of stage 1) stage 3 involves switching out media and NSC exosomes with fresh media lacking NSC exosomes and allowing the cells to grow for 5-7 days. After stage 3, (typically at day 20-22 from the start of stage 1), neural progenitor spheres (the primary colonies) are isolated from the culture. After isolation occurs, the neurospheres are picked to keep on suspension for expansion and experimentation. […]

iNSC-MSC = experiment: Differentiation potential of iNSC-MSC under serum free conditions (immunofluorescence); type: cell-based; conditions: methods using decitabine (method 2 & 4) versus methods without
Description: The resultant cells of the four methods express neural differentiation markers Bill, GFAP and NeuN, especially in the surrounded areas of the spheres. On the other hand, they keep NSC markers Sox2, Sox1 and CD90 on the spheres. […] All nuclei were counterstained with DAPI. Scale bar, 50 μm.

Question: For `Nc1ncn([C@H]2C[C@H](O)[C@@H](CO)O2)c(=O)n1` [decitabine, 5-aza-2′-deoxycytidine], which “number of primary neurospheres produced” value (MSC; MSC cultured with NSC exosomes, day 21 of production (FIG. 2B)) is on record?
Answer: enhances the number of spheres produced

Question: What about the spheres produced (MSC; MSC treated without NSC exosomes) of the same molecule?
Answer: no spheres were found produced

Question: And the “immunofluorescence intensities for BII tubulin” value (iNSC-MSC)?
Answer: significant less iimmunofluorescence intensities
